According to patent publication US4292319A, “Antiphlogistic pharmaceutical compositions and method of use” (Boehringer Ingelheim GmbH, priority 1977, dated 1981):
Counter-ions that a name gives are not always drawn. Like-named read-outs stand apart in the source and are kept apart here.

Key:
[1] = Test for ulcerogenic effect on the stomach of the rat; assay type: in vivo, rat (Chbb:THOM); settings: in vivo, po, ED50-ulcer
Procedure: (§1) (1) Test for ulcerogenic effect on the stomach of the rat
(§2) The test was carried out on male and female (1:1) Chbb:THOM-rats with a body weight between 130 to 150 gm at the beginning of the study.
(§3) The test substances (non-steroidal anti-phlogistics or mixtures of these antiphlogistics with pirenzepine dihydrochloride) were administered as triturations in 1% tylose (1 ml/100 gm animal) by way of an esophageal tube once a day on three successive days.
(§4) Four hours after the last administration (i.e. on the 3rd day) the animals were killed by an over-dose of ether. The stomachs wer dissected, cut along the great curvature and washed under flowing water for subsequent macroscopic evaluation.

[2] = tested on: stomach of the rat; assay: as above; assay type: in vivo, rat (Chbb:THOM); settings: oral, 3 subsequent days
Procedure: as §1, §2, §3, §4

[3] = tested on: carrageenin-induced edema of the hind paw of the rat; assay: Test for antiphlogistic effect against the carrageenin-induced edema of the hind paw of the rat; assay type: in vivo; settings: rat; for ED35: Rattus norvegicus, po, 3 h, carrageenin edema; for Thickness of the paw (mean): 3 h after carrageenin
Procedure: The test was carried out in analogy to the above test for the kaolin-induced edema. However, the edema was induced according to the method of WINTER et al. [J. Pharmacol. 141, 369 (1963)] by subplantary injection of 0.05 ml of a 1% solution of carrageenin in an aqueous 0.85% solution of sodium chloride. […] Three hours after the provocation of the edema the measurement which provided the basis for the evaluation of an anti-exudative effect was carried out.
(§5) From the swelling values obtained by administration of different dosages of non-steroidal antiphlogistics with or without the addition of pirenzepine dihydrochloride, using a linear regression analysis according to LINDNER [Statistische Methoden, 4th Ed., pages 148-162, Birkhauser, Basel, Switzerland (1964)], the ED35 values of the antiphlogistics were calculated with the confidence limits according to FIELLER [Quart. J. Pharm. Pharmacol. 17, 117 (1944)], the ED35 being the dosage which reduces the swelling of the paws by 35% in comparison to the control animals.

[4] = tested on: kaolin-induced edema of the rat's hind paw; assay: Test for antiphlogistic effect against the kaolin-induced edema of the rat's hind paw; assay type: in vivo, rat (Chbb:THOM); settings: oral, rat; for ED35: Rattus norvegicus, po, 5 h, kaolin edema, read-out: ED35; for Thickness of the paw (mean): 5 h after kaolin
Procedure: (2) Test for antiphlogistic effect against the kaolin-induced edema of the rat's hind paw (tested substances: A, B, C and D)
The test was carried out on male Chbb:THOM-rats with a body weight between 125 and 150 gm. According to HILLEBRECHT [Arzneimittel-Forsch. 4, 607 (1954)], a subplantary injection of 0.05 ml of a 10% suspension of kaolin in an aqueous 0.85% sodium chloride solution in the hind paw was used for the provocation of the kaolin edema. The other hind paw was subplantarily injected with the same volume of an aqueous 0.85% sodium chloride solution.
The measurement of the thickness of the paws was carried out using the technique of DOEPFNER and […] [Int. Arch. Allergy appl. Immunol. 12, 89 (1958)] by way of the determination of the maximum sagittal diameter, using a measuring device with constant pressure, before and 5 hours after the provocation of the edema.
The test substances (the non-steroidal antiphlogistics or the mixture of non-steroidal antiphlogistics with pirenzepine dihydrochloride) were administered 30 minutes before provocation of the edema as a trituration in 1% tylose (1 ml/[…]) by way of an esophageal tube.
The diameter of the paw measured before the beginning of the test as well as the increase in diameter of the other paw caused by injection were subtracted from the diameter of the kaolin-treated paw, and this difference, being the real swelling value, was used for the further calculations.
as §5

[5] = antiphlogistic 12.5 mgm/kg, without A
[6] = antiphlogistic 25 mgm/kg + A 100 mgm/kg
[7] = antiphlogistic 25 mgm/kg, without A
[8] = antiphlogistic 50 mgm/kg + A 100 mgm/kg
[9] = antiphlogistic 50 mgm/kg, without A
[10] = antiphlogistic 100 mgm/kg, without A

Q: For `CC(C)Cc1ccc(C(C)C(=O)O)cc1` (centres unmarked) [H, 2-(4-isobutylphenyl)-propionic acid], which TD50 [1] is on record?
A: 31 mg/kg

Q: What about the “Ratio of animals with ulcers” value [2, 5] of the same molecule?
A: 0/20

Q: What about the “Ratio of animals with ulcers” value [2, 6] of the same molecule?
A: 6/20

Q: What about the “Ratio of animals with ulcers” value ([2]; antiphlogistic 25 mgm/kg + A 400 mgm/kg) of the same molecule?
A: 1/20

Q: What about the “Ratio of animals with ulcers” value [2, 7] of the same molecule?
A: 8/20

Q: And the “Ratio of animals with ulcers” value [2, 8]?
A: 11/20

Q: And the “Ratio of animals with ulcers” value ([2]; antiphlogistic 50 mgm/kg + A 400 mgm/kg)?
A: 11/20

Q: And the “Ratio of animals with ulcers” value [2, 9]?
A: 15/20

Q: What about the “Ratio of animals with ulcers” value ([2]; antiphlogistic 100 mgm/kg + A 100 mgm/kg) of the same molecule?
A: 18/20

Q: What about the “Ratio of animals with ulcers” value ([2]; antiphlogistic 100 mgm/kg + A 400 mgm/kg) of the same molecule?
A: 16/20

Q: And the “Ratio of animals with ulcers” value [2, 10]?
A: 19/20

Q: And the “Ratio of animals with ulcers” value ([2]; antiphlogistic 200 mgm/kg + A 100 mgm/kg)?
A: 20/20

Q: And the “Ratio of animals with ulcers” value ([2]; antiphlogistic 200 mgm/kg + A 400 mgm/kg)?
A: 19/20

Q: And the “Ratio of animals with ulcers” value ([2]; antiphlogistic 200 mgm/kg, without A)?
A: 20/20

Q: And the ED35 ([3]; with A 400 mgm/kg)?
A: 34.2 mg/kg

Q: What about the ED35 ([3]; without A) of the same molecule?
A: 39.6 mg/kg

Q: And the “Thickness of the paw (mean)” value ([3]; antiphlogistic 20 mgm/kg + A 400 mgm/kg, oral)?
A: 204.0 10^-2 mm

Q: And the “Thickness of the paw (mean)” value ([3]; antiphlogistic 20 mgm/kg, without A, oral)?
A: 210.0 10^-2 mm

Q: And the “Thickness of the paw (mean)” value ([3]; antiphlogistic 40 mgm/kg + A 400 mgm/kg, oral)?
A: 170.0 10^-2 mm

Q: What about the “Thickness of the paw (mean)” value ([3]; antiphlogistic 40 mgm/kg, without A, oral) of the same molecule?
A: 167.0 10^-2 mm

Q: What about the “Thickness of the paw (mean)” value ([3]; antiphlogistic 80 mgm/kg + A 400 mgm/kg, oral) of the same molecule?
A: 131.7 10^-2 mm

Q: What about the “Thickness of the paw (mean)” value ([3]; antiphlogistic 80 mgm/kg, without A, oral) of the same molecule?
A: 141.5 10^-2 mm

Q: For `O=C(O)C=CC(O)c1ccc(-c2ccccc2F)cc1` (centres unmarked) [C, 4-[4-(2'-fluoro-biphenylyl)]-4-hydroxy-crotonic acid morpholine salt], which “Ratio of animals with ulcers” value ([2]; antiphlogistic 52 mgm/kg, without A) is on record?
A: 5/12

Q: What about the “Ratio of animals with ulcers” value ([2]; antiphlogistic 62 mgm/kg + A 50 mgm/kg) of the same molecule?
A: 4/15

Q: And the “Ratio of animals with ulcers” value ([2]; antiphlogistic 62 mgm/kg, without A)?
A: 8/12

Q: And the “Ratio of animals with ulcers” value ([2]; antiphlogistic 74 mgm/kg + A 50 mgm/kg)?
A: 8/17

Q: What about the “Ratio of animals with ulcers” value ([2]; antiphlogistic 74 mgm/kg + A 100 mgm/kg) of the same molecule?
A: 0/15

Q: What about the “Ratio of animals with ulcers” value ([2]; antiphlogistic 74 mgm/kg, without A) of the same molecule?
A: 10/12

Q: And the “Ratio of animals with ulcers” value ([2]; antiphlogistic 88 mgm/kg + A 50 mgm/kg)?
A: 9/17

Q: What about the “Ratio of animals with ulcers” value ([2]; antiphlogistic 88 mgm/kg + A 100 mgm/kg) of the same molecule?
A: 4/15

Q: What about the “Ratio of animals with ulcers” value ([2]; antiphlogistic 106 mgm/kg + A 50 mgm/kg) of the same molecule?
A: 11/17

Q: And the “Ratio of animals with ulcers” value ([2]; antiphlogistic 106 mgm/kg + A 100 mgm/kg)?
A: 3/15

Q: And the “Ratio of animals with ulcers” value ([2]; antiphlogistic 127 mgm/kg + A 100 mgm/kg)?
A: 7/15

Q: And the “Ratio of animals with ulcers” value ([2]; antiphlogistic 153 mgm/kg + A 100 mgm/kg)?
A: 8/15

Q: What about the ED35 ([4]; with A 100 mgm/kg) of the same molecule?
A: 17.6 mg/kg

Q: And the ED35 ([4]; without A)?
A: 15.3 mg/kg

Q: And the “Thickness of the paw (mean)” value ([4]; antiphlogistic 6.25 mgm/kg + A 100 mgm/kg)?
A: 215.6 10^-2 mm

Q: What about the “Thickness of the paw (mean)” value ([4]; antiphlogistic 6.25 mgm/kg, without A) of the same molecule?
A: 203.9 10^-2 mm

Q: And the “Thickness of the paw (mean)” value ([4]; antiphlogistic 12.25 mgm/kg + A 100 mgm/kg)?
A: 187.0 10^-2 mm

Q: What about the “Thickness of the paw (mean)” value [4, 5] of the same molecule?
A: 179.5 10^-2 mm

Q: What about the “Thickness of the paw (mean)” value [4, 6] of the same molecule?
A: 166.0 10^-2 mm

Q: And the “Thickness of the paw (mean)” value [4, 7]?
A: 164.3 10^-2 mm

Q: And the “Thickness of the paw (mean)” value [4, 8]?
A: 149.3 10^-2 mm

Q: And the “Thickness of the paw (mean)” value [4, 9]?
A: 138.0 10^-2 mm

Q: What about the “Thickness of the paw (mean)” value [4, 10] of the same molecule?
A: 93.8 10^-2 mm

Q: With `COc1ccc2cc([C@H](C)C(=O)O)ccc2c1` [F, d-2-(6-methoxy-2-naphthyl)-propionic acid] as the molecule, how does the ED35 ([3]; with A 400 mgm/kg, oral, read-out: ED35) read?
A: 3 mg/kg

Q: What about the ED35 ([3]; without A, oral, read-out: ED35) of the same molecule?
A: 2.8 mg/kg

Q: And the “Thickness of the paw (mean)” value ([3]; antiphlogistic 2 mgm/kg + A 400 mgm/kg, oral)?
A: 192.2 10^-2 mm

Q: What about the “Thickness of the paw (mean)” value ([3]; antiphlogistic 2 mgm/kg, without A, oral) of the same molecule?
A: 188.5 10^-2 mm

Q: And the “Thickness of the paw (mean)” value ([3]; antiphlogistic 4 mgm/kg + A 400 mgm/kg, oral)?
A: 168.5 10^-2 mm

Q: And the “Thickness of the paw (mean)” value ([3]; antiphlogistic 4 mgm/kg, without A, oral)?
A: 157.5 10^-2 mm

Q: What about the “Thickness of the paw (mean)” value ([3]; antiphlogistic 8 mgm/kg + A 400 mgm/kg, oral) of the same molecule?
A: 133.3 10^-2 mm

Q: What about the “Thickness of the paw (mean)” value ([3]; antiphlogistic 8 mgm/kg, without A, oral) of the same molecule?
A: 118.0 10^-2 mm
